From publication PMC10286336, “Potassium ion channels as a molecular target to reduce virus infection and mortality of honey bee colonies” (Virology Journal, 2023) come the findings set out here.

What all share (assay type): in vivo, Apis mellifera
Data set [1] has as its system honey bees. The procedure: (§1) The ability of KATP modulators to rescue or synergize paraquat-induced mortality was then assessed by incorporating modulators into 1:1 sucrose containing paraquat. […] Quantification of ROS among survivors was performed using the Total Antioxidant Capacity Assay kit (Cayman Chemical).
The next data set has as its system glucose oxidase (GOX). Nature of the data set: Glucose oxidase activity of treated bees (social immunity). The conditions noted are these: in vivo. Here is the method: (§2) Individual bees were sampled at 24-h intervals and frozen in liquid nitrogen. Social immunity was measured by quantifying the metabolism of glucose to hydrogen peroxide by glucose oxidase. Briefly, heads were homogenized in ice-cold extraction buffer then centrifuged at 15,000×g. Aliquots of supernatant were incubated with horse radish peroxidase and glucose at 37 °C, then combined with the chromogen o-dianisidine dihydrochloride. Absorbance was read at 430 nm over a period of 90 min and compared to sample blanks, lacking chromogen. To measure individual immunity, phenoloxidase activity was measured as described. Abdomens were homogenized as and centrifuged as previously described. Supernatant was incubated at 37 °C, then combined with the chromogen L-Dopa. Absorbance was measured at 490 nm for 20 min, then compared to sample blanks lacking chromogen. To compare both glucose oxidase and phenol oxidase activity between samples, Vmax was calculated using the Michaelis–Menten equation.

Data set [2] deals with honey bees. The procedure:
An LC50 for paraquat in 1:1 sucrose diet was determined for 72 h of oral exposure by constructing a concentration–response curve. The ability of KATP modulators to rescue or synergize paraquat-induced mortality was then assessed by incorporating modulators into 1:1 sucrose containing paraquat. Mortality assessments and sampling of surviving bees was conducted at 24-h intervals. Quantification of ROS among survivors was performed using the Total Antioxidant Capacity Assay kit (Cayman Chemical).
This is another data set of the same source.

In data set [3] the test system is total antioxidant concentrations in bees. Nature of the data set: Total antioxidant capacity of bees (quantification of ROS). The conditions noted are these: alone. The procedure:
as §1

The next data set deals with phenoloxidase (POX). Nature of the data set: Phenoloxidase activity of treated bees (individual immunity). The conditions noted are these: 72 h post-exposure. The procedure:
as §2

Data set [4] relates to bees from Varroa destructor infested colonies. The procedure:
Age-matched bees from colonies with higher (> 10 mites/100 bees) and lower (< 1 mite/100 bees) were placed in hoarding cages and allowed to feed ad libitum on sucrose solution alone or containing paraquat. Survivorship was assessed at 24-h intervals, and LT50 times were calculated by nonlinear regression using a Hill equation.

In data set [5] the test system is bees inoculated with Israeli acute paralysis virus (IAPV). Nature of the data set: IAPV-mediated mortality of bees fed KATP modulator or paraquat. The arrangement: Survivorship after IAPV inoculation compared to IAPV alone: dose or concentration left out as unconfirmed. Here is the method: IAPV was obtained following our previously described methods. Approximately 30 adult bees from a heavily infected IAPV infected colony were froze in liquid nitrogen, ground to a fine powder, and homogenized in a phosphate extraction buffer. The supernatant was collected after centrifuging the emulsion and filtered through a 0.2 micron filter. The filtrate was subsequently centrifuged at 30,000 rpm to pellet the picornavirus particles and was followed by resusopension in PBS and centrifuged at 52,000 rpm overnight. The fractions containing virus particles were dialyzed against cold PBS overnight. Verification that IAPV was the only virus present in the inoculum was performed via qRT-PCR and quantification of IAPV was performed by absolute quantification using standard curve method as previously described.
Bees were immobilized on ice, then injected with PBS alone or containing IAPV and returned to the incubator. […] Quantification of IAPV mRNA among whole bees and excised insect dorsal vessels was performed by qRT-PCR as detailed below.

The structures appear in SMILES notation. Read-outs that look alike come from different tables or passages of the source.

In the case of `CCCCNC(=O)NS(=O)(=O)c1ccc(C)cc1` [tolbutamide], the “Effect on paraquat-induced toxicity” value in the data set with honey bees [1] (pre-exposure to modulator, 120-h feeding period) is recorded as “did not alter”.
In the case of `C[n+]1ccc(-c2cc[n+](C)cc2)cc1` [paraquat, Paraquat dichloride hydrate], in the data set on glucose oxidase (GOX), the “Decrease in GOX compared to pinacidil-treated bees” value is given as 3.3 fold. The “Decrease in GOX compared to untreated bees” value with glucose oxidase (GOX) came out at 11 fold. Moreover, the Mortality result is given as “ca. 50%” in the data set with honey bees [2] (paraquat 1 and 2 mg/mL, 48 h post-exposure); “ca. 100%” with honey bees [2] (paraquat 1 and 2 mg/mL, 72 h post-exposure); “ca. 20%” in the data set with honey bees [2] (paraquat, 48 h post-exposure); around 58% with honey bees [2] (paraquat, 72 h post-exposure). For the same molecule, in data set [3] (24 h), the “Reduction of total antioxidant concentrations compared to untreated” value worked out at 1.3 fold. Moreover, in data set [3] (48 h), the “Reduction of total antioxidant concentrations compared to control treatment” value is listed as 1.4 fold. Also, the POX activity result in the data set with phenoloxidase (POX) is listed as “significantly reduced”. In addition, the LT50 entry with honey bees [1] (0.5 mg/mL paraquat alone, injection experiment) was “ca. 75 h”; in the data set on honey bees [1] (oral, paraquat exposure alone) it was “ca. 68 h”. In data set [4] (1 and 2 mg/mL paraquat), the “Survivorship difference between low and high mite groups” value is listed as “no statistical differences”. For the same molecule, the “LT50 (95% CI)” value was 169 (142–177) Ba Hours in data set [4] (High mites, paraquat 0.1 mg/mL); 99 (71–136) Bb Hours in data set [4] (High mites, paraquat 0.5 mg/mL); 52 (22–84) Ac Hours in data set [4] (High mites, paraquat 1 mg/mL); 47 (38–63) Ac Hours in data set [4] (High mites, paraquat 2 mg/mL); 82 (51–99) Aa Hours in data set [4] (Low mites, paraquat 0.1 mg/mL); 66 (52–80) Ab Hours in data set [4] (Low mites, paraquat 0.5 mg/mL). Also, the “LT50 (95% CI)” value in data set [4] (Low mites, paraquat 1 mg/mL) was 54 (38–70) Ab Hours; in data set [4] (Low mites, paraquat 2 mg/mL), 49 (42–56) Ab Hours. Further, in data set [4] (paraquat 0.1 mg/mL, 96- to 168-h post treatment), the “Survivorship of bees from high versus low mite-infested colonies” value is recorded as “significantly increased”. The “Mortality in high mite versus low mite colonies” value in data set [4] (paraquat 0.5 mg/mL, 72- and 96-h post treatment) is reported as “significant (P < 0.05) reduction of mortality”. In data set [5], the “Survivorship after IAPV inoculation compared to IAPV alone” value was “increased survivorship”. The “Mortality of IAPV + paraquat versus untreated control” value in data set [5] (0.5 mg/mL paraquat, 24- and 48-h post-inoculation) was “not significantly different”. Moreover, the “Mortality of paraquat + IAPV versus untreated and IAPV-only bees” value in data set [5] (0.5 mg/mL paraquat, 72 h post-inoculation) is recorded as “significantly (P < 0.05) greater than untreated bees, but significantly less than IAPV-only treated bees”.
